Assay results as given in US5120841A, “Cephalosporin ester derivatives” (Takeda Chemical Industries, Ltd., priority 1983, dated 1992).
Structures can show the parent of a compound that is named as a salt.

How the values were obtained:
[1] = oral administration to mice: plasma level of non-ester compound (compound [II]), AUC and bioavailability; format: in vivo; conditions: compound [II] in plasma, 100 mg/kg (in terms of compound [II]), zero to 2 hours
[2] = test system: Staphylococcus aureus; conditions: gram-positive bacteria, Antimicrobial Agent and Chemotherapy 14, 557-568 (1978); cited from earlier work
[3] = mouse, in vivo, sc, 120 min
Procedure: At 0.25, 0.5, 1.0 and 2.0 hours after administration, the concentration of compound [II] in plasma of the mouse is measured by the cup method using Proteus mirabilis Eb 313 as the test organism and the area under plasma concentration-time curve from zero to 2 hours (AUC) is calculated.
The compound [II ] was subcutaneously applied and AUC was calculated in the same manner as above.

[4] = test system: Proteus mirabilis; conditions: gram-negative bacteria, Antimicrobial Agent and Chemotherapy 14, 557-568 (1978); cited from earlier work
[5] = test system: proteus morganii; conditions: gram-negative bacteria, Antimicrobial Agent and Chemotherapy 14, 557-568 (1978); cited from earlier work
[6] = test system: Escherichia coli; conditions: gram-negative bacteria, Antimicrobial Agent and Chemotherapy 14, 557-568 (1978); cited from earlier work
[7] = test system: Klebsiella pneumoniae; conditions: gram-negative bacteria, Antimicrobial Agent and Chemotherapy 14, 557-568 (1978); cited from earlier work
[8] = test system: Proteus vulgaris; conditions: gram-negative bacteria, Antimicrobial Agent and Chemotherapy 14, 557-568 (1978); cited from earlier work

Row | AUC [1] | SMILES | also measured
1 | 9280 ng·h/mL | CCOC(=O)OC(C)OC(=O)C1=C(CSc2nnnn2CCN(C)C)CS[C@@H]2[C@H](NC(=O)Cc3csc(N)n3)C(=O)N12 (stereo partly drawn) [A, 1-(ethoxycarbonyloxy)ethyl 78-[2-(2-aminothiazol-4-yl)acetamido]-3-[[[1-(2-dimethylaminoethyl)-1H-tetrazol-5-yl]-thio]methyl]ceph-3-em-4-carboxylate, reference compound] | –
2 | 30000 ng·h/mL | CN(C)CCn1nnnc1SCC1=C(C(=O)OCOC(=O)OC2CCCCC2)N2C(=O)[C@@H](NC(=O)Cc3csc(N)n3)[C@H]2SC1 [Example 1-1, Cyclohexyloxycarbonyloxy 7β-[2-Aminothiazol-4-yl)Acetamido]-3-[[[1-(2-Dimethylaminoethyl)-1H-Tetrazol-5-yl]Thio]Methyl]Ceph-3-Em-4-Carboxylate Dihydrochloride] | –
3 | 33100 ng·h/mL | CN(C)CCn1nnnc1SCC1=C(C(=O)OCOC(=O)OC2CCCCCCCCCCC2)N2C(=O)[C@@H](NC(=O)Cc3csc(N)n3)[C@H]2SC1 [Example 1-5] | –
4 | 29400 ng·h/mL | CC(C)[C@@H]1CC[C@@H](C)C[C@H]1OC(=O)OCOC(=O)C1=C(CSc2nnnn2CCN(C)C)CS[C@@H]2[C@H](NC(=O)Cc3csc(N)n3)C(=O)N12 [Example 1-6] | –
5 | 30100 ng·h/mL | CC1CCCC(OC(=O)OC(C)OC(=O)C2=C(CSc3nnnn3CCN(C)C)CS[C@@H]3[C@H](NC(=O)Cc4csc(N)n4)C(=O)N23)C1 (stereo partly drawn) [Example 2-10] | –
6 | 35400 ng·h/mL | CC(OC(=O)OC1CCCCC1C)OC(=O)C1=C(CSc2nnnn2CCN(C)C)CS[C@@H]2[C@H](NC(=O)Cc3csc(N)n3)C(=O)N12 (stereo partly drawn) [Example 2-11] | –
7 | – | CC(OC(=O)OC1CCCCC1C)OC(=O)C1=C(CSc2nnnn2CCN(C)C)CSC2C(NC(=O)Cc3csc(N)n3)C(=O)N12 (stereo not drawn) [Example 2-12] | AUC ([1]; 100 mg/kg): 35500 ng·h/mL
8 | – | CC(OC(=O)OC1CCCCC1C)OC(=O)C1=C(CSc2nnnn2CCN(C)C)CSC2C(NC(=O)Cc3csc(N)n3)C(=O)N12 (stereo not drawn) [Example 2-13] | AUC ([1]; 100 mg/kg): 36100 ng·h/mL
9 | 31300 ng·h/mL | CCC(OC(=O)OC1CCCCC1)OC(=O)C1=C(CSc2nnnn2CCN(C)C)CS[C@@H]2[C@H](NC(=O)Cc3csc(N)n3)C(=O)N12 (stereo partly drawn) [Example 5-2] | –
10 | 36300 ng·h/mL | CCCC(OC(=O)OC1CCCCC1)OC(=O)C1=C(CSc2nnnn2CCN(C)C)CS[C@@H]2[C@H](NC(=O)Cc3csc(N)n3)C(=O)N12 (stereo partly drawn) [Example 5-7] | –
11 | – | CN(C)CCn1nnnc1SCC1=C(C(=O)O)N2C(=O)[C@@H](NC(=O)Cc3csc(N)n3)[C@H]2SC1 [compound[II], 7β-[2-(2-aminothiazol-4-yl)acetamido]-3-[[[1-(2-dimethylaminoethyl)-1H-tetrazol-5-yl]thio]methyl]-ceph-3-em-4-carboxylic acid] | antibacterial activity [2]: potent antibacterial activity; Bioavailability [3]: 100%; antibacterial activity [4]: potent antibacterial activity; antibacterial activity [5]: potent antibacterial activity; antibacterial activity [6]: potent antibacterial activity; antibacterial activity [7]: potent antibacterial activity; antibacterial activity [8]: potent antibacterial activity

Row | SMILES | AUC [1] | also measured
12 | CC(OC(=O)OC1CCCCC1)OC(=O)C1=C(CSc2nnnn2CCN(C)C)CS[C@@H]2[C@H](NC(=O)Cc3csc(N)n3)C(=O)N12.Cl.Cl (stereo partly drawn) [Example 2-1, 1-(Cyclohexyloxycarbonyloxy)ethyl 7β-[2-(2-aminothiazol-4-yl)acetamido]-3-[[[1-(2-dimethylaminoethyl)-1H-tetrazol-5-yl]thio]methyl]ceph-3-em-4-carboxylate dihydrochloride] | 30000 ng·h/mL | –
